Values after ≈ are worked out from the molar mass of the structure shown. Values belong to the compound of their own block, whether it stands above or below them.
How the values were obtained:
[1] = Inhibition of Candida albicans GFA1 using D-Fru6P and L-glutamine as substrate by absorbance method
Candida albicans [2] = assay: Antifungal activity against Candida albicans ATCC 10231 by CLSI-based serial dilution method; assay type: functional
[3] = Inhibition of Candida albicans GFA1 using D-Fru6P and L-glutamine as substrate incubated for 30 mins by Elson-Morgan method
Erythrocyte = assay: Hemolytic activity in ICR mouse red blood cells incubated for 2 hrs by visual observation; assay type: ADME, cell-based
Nakaseomyces glabratus [4] = assay: Antifungal activity against Candida glabrata DSM 11226 by CLSI-based serial dilution method; assay type: functional
[5] = Antifungal activity against Candida arborea KKP319 by CLSI-based serial dilution method; assay type: functional
Pichia kudriavzevii [6] = assay: Antifungal activity against Candida krusei DSM 6128 by CLSI-based serial dilution method; assay type: functional
Candida albicans [7] = assay: Antifungal activity against Candida albicans FP614 by agar dilution method; assay type: functional
Candida albicans [8] = assay: Antifungal activity against Candida albicans FP615 by agar dilution method; assay type: functional
Candida albicans [9] = assay: Antifungal activity against Candida albicans FP616 by agar dilution method; assay type: functional
Candida albicans [10] = assay: Antifungal activity against Candida albicans FP622 by agar dilution method; assay type: functional
Candida tropicalis [11] = assay: Antifungal activity against Candida tropicalis FP583 by agar dilution method; assay type: functional
Pichia kudriavzevii [12] = assay: Antifungal activity against Candida krusei FP585 by agar dilution method; assay type: functional
Candida parapsilosis [13] = assay: Antifungal activity against Candida parakrusei FP586 by agar dilution method; assay type: functional; settings: Lodderomyces parapsilosis
Cryptococcus neoformans = assay: Antifungal activity against Cryptococcus neoformans H99 incubated for 72 hrs by CLSI M27A method; assay type: functional; settings: var grubii H99
[14] = Inhibition of Cryptococcus neoformans (H99) 1,3-beta-glucan synthase component FKS1 using UDP-[14C]glucose as substrate; design: species or system Cryptococcus neoformans var. grubii H99
Candida parapsilosis [15] = assay: Antifungal activity against Candida parapsilosis incubated for 24 hrs by CLSI method; assay type: functional; settings: Lodderomyces parapsilosis
Candida tropicalis [16] = assay: Antifungal activity against Candida tropicalis incubated for 24 hrs by CLSI method; assay type: functional
Candida albicans [17] = assay: Antifungal activity against Candida albicans incubated for 24 hrs by CLSI method; assay type: functional
Pichia kudriavzevii [18] = assay: Antifungal activity against Candida krusei incubated for 24 hrs by CLSI method; assay type: functional
Nakaseomyces glabratus [19] = assay: Antifungal activity against Candida glabrata incubated for 24 hrs by CLSI method; assay type: functional
[20] = Inhibition of Beta-1,3-glucan synthase in wild type Schizosaccharomyces pombe
[21] = Inhibition of Beta-1,3-glucan synthase in Schizosaccharomyces pombe pbr1-8
[22] = Inhibition of Beta-1,3-glucan synthase in Schizosaccharomyces pombe pbr1-6
Aspergillus fumigatus = assay: Antifungal activity against Aspergillus fumigatus CF1083 infected in iv dosed mouse model of pulmonary aspergillosis administered once daily for 4 days and measured on day 14; assay type: functional; settings: 336 h, time 14 day
Chitotriosidase-1 = Chitotriosidase-1 (Homo sapiens, UniProt Q13231); assay: Inhibition of human chitinase1 incubated for 70 mins using 4MU-NAG2 as substrate by fluorescence method
[23] = Inhibition of Saccharomyces cerevisiae CTS1 incubated for 70 mins by fluorescence method
Endochitinase A1 = Endochitinase A1 (Aspergillus fumigatus, UniProt Q873Y0); assay: Inhibition of Aspergillus fumigatus chiA1 (Arg28 to His337) expressed in Pichia pastoris incubated for 70 mins using 4MU-NAc3 as substrate by fluorescence method
Chitin synthase 2 = Chitin synthase 2 (Candida albicans, UniProt P30572); assay: Inhibition of Chitin synthase 2 in Candida albicans (chs3del::hisG/chs3del::hisG) microsomes using UDP-[U14C]-GlcNac as substrate; design: species or system Microsome
Chitin synthase 1 = Chitin synthase 1 (Candida albicans, UniProt P23316); assay: Inhibition of Chitin synthase 1 in Candida albicans (chs3del::hisG/chs3del::hisG) microsomes using UDP-[U14C]-GlcNac as substrate; design: species or system Microsome
Pichia kudriavzevii [24] = assay: Antifungal activity against Candida krusei incubated for 48 to 72 hrs by broth microdilution method; assay type: functional; settings: time 48-72 hrs
[25] = system: Meyerozyma guilliermondii; assay: Antifungal activity against Candida guilliermondii incubated for 48 to 72 hrs by broth microdilution method; assay type: functional; settings: time 48-72 hrs
Candida albicans [26] = assay: Antifungal activity against Candida albicans ATCC 44373 incubated for 48 to 72 hrs by broth microdilution method; assay type: functional; settings: time 48-72 hrs
Candida albicans [27] = assay: Antifungal activity against Candida albicans ATCC 38248 incubated for 48 to 72 hrs by broth microdilution method; assay type: functional; settings: time 48-72 hrs
Candida albicans [28] = assay: Antifungal activity against Candida albicans ATCC 200955 incubated for 48 to 72 hrs by broth microdilution method; assay type: functional; settings: time 48-72 hrs
Candida albicans [29] = assay: Antifungal activity against Candida albicans ATCC 10231 incubated for 48 to 72 hrs by broth microdilution method; assay type: functional; settings: time 48-72 hrs

Endochitinase A1, sequence (Q873Y0 whole entry): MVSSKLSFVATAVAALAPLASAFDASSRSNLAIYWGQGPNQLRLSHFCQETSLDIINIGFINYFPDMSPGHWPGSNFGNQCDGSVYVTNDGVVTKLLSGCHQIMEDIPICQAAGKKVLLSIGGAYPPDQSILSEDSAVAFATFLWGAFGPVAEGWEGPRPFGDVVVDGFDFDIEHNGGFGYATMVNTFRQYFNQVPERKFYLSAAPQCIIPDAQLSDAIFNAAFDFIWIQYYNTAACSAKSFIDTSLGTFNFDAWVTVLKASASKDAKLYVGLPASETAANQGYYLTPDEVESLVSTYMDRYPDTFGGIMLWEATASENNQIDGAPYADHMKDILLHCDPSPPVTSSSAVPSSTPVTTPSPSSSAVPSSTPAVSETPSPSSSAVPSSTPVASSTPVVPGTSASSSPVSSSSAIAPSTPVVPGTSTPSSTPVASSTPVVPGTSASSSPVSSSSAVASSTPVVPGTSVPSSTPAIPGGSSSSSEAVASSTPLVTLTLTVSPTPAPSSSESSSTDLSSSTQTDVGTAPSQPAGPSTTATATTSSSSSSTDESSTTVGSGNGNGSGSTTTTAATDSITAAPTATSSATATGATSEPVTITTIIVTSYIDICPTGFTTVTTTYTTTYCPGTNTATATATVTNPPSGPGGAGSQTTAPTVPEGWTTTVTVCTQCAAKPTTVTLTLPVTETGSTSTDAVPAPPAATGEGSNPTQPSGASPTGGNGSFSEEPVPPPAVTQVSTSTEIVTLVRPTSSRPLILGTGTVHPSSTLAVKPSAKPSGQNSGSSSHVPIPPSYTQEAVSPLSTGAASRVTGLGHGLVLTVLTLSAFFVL
Chitin synthase 2, sequence (P30572 whole entry): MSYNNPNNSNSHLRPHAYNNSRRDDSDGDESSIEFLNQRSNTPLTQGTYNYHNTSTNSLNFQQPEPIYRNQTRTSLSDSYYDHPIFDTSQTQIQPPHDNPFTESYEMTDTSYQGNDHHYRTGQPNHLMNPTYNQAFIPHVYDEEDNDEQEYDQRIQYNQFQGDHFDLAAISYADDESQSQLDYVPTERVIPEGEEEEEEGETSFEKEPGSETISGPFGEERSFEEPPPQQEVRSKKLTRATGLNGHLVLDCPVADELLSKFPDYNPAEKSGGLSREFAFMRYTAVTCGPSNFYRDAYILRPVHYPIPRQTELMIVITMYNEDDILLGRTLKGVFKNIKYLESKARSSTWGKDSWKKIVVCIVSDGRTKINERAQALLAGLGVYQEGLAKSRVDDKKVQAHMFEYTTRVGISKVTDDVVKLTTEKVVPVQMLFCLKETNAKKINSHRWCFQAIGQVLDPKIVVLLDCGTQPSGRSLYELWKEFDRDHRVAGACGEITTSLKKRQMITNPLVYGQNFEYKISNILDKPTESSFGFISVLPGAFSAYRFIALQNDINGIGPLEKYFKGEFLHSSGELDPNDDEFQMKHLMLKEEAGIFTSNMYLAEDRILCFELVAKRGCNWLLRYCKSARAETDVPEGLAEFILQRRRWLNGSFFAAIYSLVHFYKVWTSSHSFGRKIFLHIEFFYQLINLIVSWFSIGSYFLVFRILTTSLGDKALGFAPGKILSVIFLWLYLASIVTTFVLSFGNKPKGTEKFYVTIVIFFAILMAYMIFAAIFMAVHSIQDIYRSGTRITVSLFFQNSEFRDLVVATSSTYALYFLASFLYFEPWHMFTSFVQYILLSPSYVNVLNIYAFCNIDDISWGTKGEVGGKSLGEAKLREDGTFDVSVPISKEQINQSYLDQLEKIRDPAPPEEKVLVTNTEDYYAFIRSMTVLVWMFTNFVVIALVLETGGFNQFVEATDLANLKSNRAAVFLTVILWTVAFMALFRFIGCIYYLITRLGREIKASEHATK
Chitin synthase 1, sequence (P23316 whole entry): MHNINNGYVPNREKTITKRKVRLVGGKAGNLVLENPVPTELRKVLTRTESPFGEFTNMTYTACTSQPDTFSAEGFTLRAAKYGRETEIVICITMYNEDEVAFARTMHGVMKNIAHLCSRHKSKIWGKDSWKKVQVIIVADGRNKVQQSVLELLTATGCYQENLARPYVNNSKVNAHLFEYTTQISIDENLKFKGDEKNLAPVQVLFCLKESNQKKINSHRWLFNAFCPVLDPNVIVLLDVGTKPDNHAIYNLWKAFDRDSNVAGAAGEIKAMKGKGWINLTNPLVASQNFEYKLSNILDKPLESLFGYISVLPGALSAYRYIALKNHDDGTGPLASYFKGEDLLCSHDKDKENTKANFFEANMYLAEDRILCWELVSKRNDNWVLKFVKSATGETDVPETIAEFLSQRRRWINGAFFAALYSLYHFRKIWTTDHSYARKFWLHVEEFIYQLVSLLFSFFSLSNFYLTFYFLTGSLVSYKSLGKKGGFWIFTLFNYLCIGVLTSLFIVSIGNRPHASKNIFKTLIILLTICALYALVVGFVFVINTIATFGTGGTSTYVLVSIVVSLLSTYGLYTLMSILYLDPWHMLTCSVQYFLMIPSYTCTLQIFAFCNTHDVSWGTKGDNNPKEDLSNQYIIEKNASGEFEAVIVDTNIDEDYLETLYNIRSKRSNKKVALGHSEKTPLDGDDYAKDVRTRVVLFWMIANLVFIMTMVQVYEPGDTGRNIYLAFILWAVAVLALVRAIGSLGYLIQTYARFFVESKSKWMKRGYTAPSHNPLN
Chitotriosidase-1, sequence (Q13231 whole entry): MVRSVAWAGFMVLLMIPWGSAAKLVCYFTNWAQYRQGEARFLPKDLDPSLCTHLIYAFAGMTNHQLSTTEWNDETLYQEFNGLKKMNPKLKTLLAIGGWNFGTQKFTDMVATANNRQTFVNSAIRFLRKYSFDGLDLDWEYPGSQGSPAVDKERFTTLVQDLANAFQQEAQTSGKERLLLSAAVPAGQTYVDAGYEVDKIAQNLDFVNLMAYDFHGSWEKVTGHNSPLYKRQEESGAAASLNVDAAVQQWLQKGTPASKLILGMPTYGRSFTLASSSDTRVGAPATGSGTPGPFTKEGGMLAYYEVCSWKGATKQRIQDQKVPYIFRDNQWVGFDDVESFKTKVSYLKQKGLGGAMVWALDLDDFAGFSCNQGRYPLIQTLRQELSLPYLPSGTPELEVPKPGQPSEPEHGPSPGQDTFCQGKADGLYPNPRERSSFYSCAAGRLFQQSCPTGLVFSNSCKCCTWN

SMILES: N[C@@H](CO)[C@@H](O)[C@H](O)[C@H](O)CS(=O)(=O)O
IC50 [3]: 130 µM
MIC (Candida albicans [2]): 1000 µg/mL (≈ 4080 µM)

SMILES: C[C@@H]1[C@H](O)[C@@H](C)/C=C/C=C/C=C/C=C/C=C/C=C/C=C/[C@H](O[C@@H]2O[C@H](C)[C@@H](O)[C@H](N)[C@@H]2O)C[C@@H]2O[C@](O)(C[C@@H](O)C[C@@H](O)[C@H](O)CC[C@@H](O)C[C@@H](O)CC(=O)O[C@H]1C)C[C@H](O)[C@H]2C(=O)O [AMPHOTERICIN B]
MHC (Erythrocyte): 8 µg/mL

SMILES: CCC/C=C/C=C/[C@@H](O)C/C=C/C=C/C(=O)O[C@H]1[C@H](O[C@@H]2O[C@H](COC(=O)/C=C/C=C\CCCCC)[C@H](O)[C@H](O)[C@H]2O)[C@@H](CO)O[C@]2(OCc3cc(O)cc(O)c32)[C@@H]1O
MIC (Candida albicans [7]): 0.1 µg/mL (≈ 0.12 µM)
MIC (Candida albicans [8]): 0.1 µg/mL (≈ 0.12 µM)
MIC (Candida albicans [9]): 0.1 µg/mL (≈ 0.12 µM)
MIC (Candida albicans [10]): 0.1 µg/mL (≈ 0.12 µM)
MIC (Candida tropicalis [11]): 0.1 µg/mL (≈ 0.12 µM)
MIC (Pichia kudriavzevii [12]): 0.1 µg/mL (≈ 0.12 µM)
MIC (Candida parapsilosis [13]): 0.1 µg/mL (≈ 0.12 µM)

SMILES: CC[C@H](C)C[C@H](C)CCCCCCCCC(=O)N[C@H]1C[C@@H](O)[C@@H](NCCN)NC(=O)[C@@H]2[C@@H](O)CCN2C(=O)[C@H]([C@H](O)CCN)NC(=O)[C@H]([C@H](O)[C@@H](O)c2ccc(O)cc2)NC(=O)[C@@H]2C[C@@H](O)CN2C(=O)[C@H]([C@@H](C)O)NC1=O [CASPOFUNGIN]
MIC (Cryptococcus neoformans): 16 µg/mL (≈ 14.6 µM)
Ki [14]: 170 nM
MIC90 (Candida parapsilosis [15]): 0.5 µg/mL (≈ 0.457 µM)
MIC90 (Candida tropicalis [16]): 1 µg/mL (≈ 0.915 µM)
MIC90 (Candida albicans [17]): 2 µg/mL (≈ 1.83 µM)
MIC90 (Pichia kudriavzevii [18]): 1 µg/mL (≈ 0.915 µM)
MIC90 (Nakaseomyces glabratus [19]): 16 µg/mL (≈ 14.6 µM)
IC50 [20]: 0.3 µg/mL (≈ 0.274 µM)
IC50 [21]: 250 µg/mL (≈ 229 µM)
IC50 [22]: 150 µg/mL (≈ 137 µM)
ED50 (Aspergillus fumigatus): > 15 mg/kg

SMILES: COc1ccccc1-c1noc2nc(C)[nH]c(=O)c12
IC50 (Chitotriosidase-1): > 100 µM
IC50 [23]: 500 nM
IC50 (Endochitinase A1): 2.6 µM

SMILES: COc1ccc2c(Cc3ccc(C(C)(C)C)cc3)c3[n+](cc2c1OC)CCc1cc2c(cc1-3)OCO2
IC50 (Chitin synthase 2): 22 µM
IC50 (Chitin synthase 1): 22 µM
MIC (Pichia kudriavzevii [24]): 1.56 µg/mL
MIC [25]: 6.25 µg/mL
MIC (Candida albicans [26]): 1.56 µg/mL
MIC (Candida albicans [27]): 1.56 µg/mL
MIC (Candida albicans [28]): 1.56 µg/mL
MIC (Candida albicans [29]): 1.56 µg/mL

SMILES: Cc1ccc(OCC(O)CNC2Cc3ccccc3C2)cc1C (configuration not stated)
IC50 [23]: 2400 nM
IC50 (Endochitinase A1): 9.2 µM

More lines, now with the values ahead:

IC50 [1]: 80 µM
MIC (Candida albicans [2]): 1000 µg/mL (≈ 4110 µM)
SMILES: N[C@H]1C(O)O[C@H](CS(=O)(=O)O)[C@@H](O)[C@@H]1O (some centres not stated)

MIC (Candida albicans [2]): > 4000 µg/mL
MIC (Nakaseomyces glabratus [4]): > 4000 µg/mL
MIC [5]: > 4000 µg/mL
MIC (Pichia kudriavzevii [6]): > 4000 µg/mL
SMILES: COS(=O)(=O)C[C@H]1OC(O)[C@H](NC(C)=O)[C@@H](O)[C@@H]1O (some centres not stated)

IC50 [1]: > 5000 µM
MIC (Candida albicans [2]): 500 µg/mL (≈ 1750 µM)
SMILES: CC(=O)N[C@H]1C(O)O[C@H](CS(=O)(=O)O)[C@@H](O)[C@@H]1O (some centres not stated)
